Here are results for 36 compounds from a melting point compilation (Tetko et al.; mined from patent text by program, amines drawn as free bases though some values may be those of a salt).

SMILES strings stand for the structures.

By melting point is commonly meant the temperature of the solid-liquid transition. Consider `Nc1c(N=O)c(=O)n(CCC2=CCCCC2)c(=O)n1CCC1=CCCCC1`, for which the melting point fell in the range of 220 to 222 °C.

The compound `Nc1c(CCO)cccc1C(O)c1ccccc1` (stereo unspecified) showed a melting point of 101 °C.

Take `C=CCSC(C#N)C1=NCCc2cc(OC)c(OC)cc21` (stereo unspecified): the melting point was in the range of 146 to 147 °C.

As for `Nc1c(-c2ccc(Br)cc2)nc2ccc(F)cc2c1C(=O)O`, the melting point lay within 231 to 233 °C.

Turning to `CC(C)n1nc(-c2sc(NC(=O)N3CCCCC3)nc2-c2ccccc2)ccc1=O`, the melting point is 138 to 140 °C.

`OCCCCCCCCN1CCC(C(O)(c2ccc(F)cc2)c2ccc(F)cc2)CC1` came in with a melting point of 124 to 125 °C.

For the compound `NOCc1cnn(C(c2ccccc2)(c2ccccc2)c2ccccc2)c1`, the melting point was 133 to 136 °C.

Take `CCCCCCOc1ccc2[nH]c(SC(C)(CO)c3ccccc3)cc2c1` (stereo unspecified): the melting point fell in the range of 93.5 to 95.5 °C.

With `Cc1ncoc1-c1ccc(C#N)cc1`, the melting point lay in the range of 120 to 121 °C.

For the compound `NC(=O)c1nn(-c2ccc(S(N)(=O)=O)cc2)c2cc(-c3ccc(F)cc3)ccc12`, the melting point was 314 to 315 °C.

As to `C[C@H](N)C(=O)NC1N=C(C2CCCCC2)c2ccccc2N(C)C1=O` (stereo partly specified), the melting point lay within 205 to 206 °C.

Turning to `CCCCCCCCNc1nc(C=O)cs1`, the melting point lay in the range of 60 to 62 °C.

In turn, `O=C(NN=Cc1ccc(C(F)(F)F)c([N+](=O)[O-])c1)c1ccc(O)cc1` displayed a melting point of 280 °C.

For `CCCn1nc2c(N)nc3ccccc3c2c1CCCc1cc(-c2cccnc2)on1`, the melting point fell in the range of 196 to 198 °C.

With `CCN(CC1CCCC1)c1nc2ccccc2cc1CN(Cc1cc(C(F)(F)F)cc(C(F)(F)F)c1)c1nnc(C)o1`, the melting point fell in the range of 126 to 127 °C.

In the case of `CCc1oncc1C(=O)Nc1ccc([N+](=O)[O-])cc1`, the melting point was 139 to 141 °C.

`Cc1c(Cc2ccc(N3C(=O)C=CC3=O)c(C)c2C)ccc(N2C(=O)C=CC2=O)c1C` returned a melting point of 210 to 220 °C.

For `C=CCn1c2ccccc2c2sccc(=O)c21`, the melting point is 67 to 68 °C.

The compound `CCOC(=O)c1cc2cc(-c3ccc(C(C)=NO)cc3)ccc2o1` gave a melting point of 220 to 222 °C.

Compound `O=C(c1ccc(F)cc1)N1CCOC(c2nc(-c3ccc(F)cc3)no2)C1` (stereo unspecified) had a melting point of 116 to 117 °C.

In turn, `COC(=O)c1ccc(Cn2c(=O)c(C)c3sc(C(=O)NCc4ccc(F)cc4)cn3c2=O)cc1Cl` came in with a melting point of 176 to 178 °C.

The compound `Cc1cccc2c1CCCC2c1c[nH]cn1` (stereo unspecified) registered a melting point of 135 °C.

In the case of `COC(=O)CCC1(CCC(=O)OC)c2cc(I)ccc2-c2ccc(I)cc21`, the melting point fell in the range of 106 to 108 °C.

Turning to `COc1ccc(-c2cc(=O)n(Cc3ccc(Cl)c(Cl)c3)nc2-c2ccc(OC)cc2)cc1`, the melting point lay within 108 to 110 °C.

`CS(=O)(=O)c1cccc(-c2ccc(C3C(CCC(O)c4ccc(F)cc4)C(=O)N3c3ccc(F)cc3)cc2)c1` (stereo unspecified) returned a melting point of 104 °C.

With `COc1ccc(OCC2NCCS2)cc1` (stereo unspecified), the melting point was in the range of 54 to 55 °C.

As for `O=c1n(-c2ccc(Cl)cc2Cl)nc2n1CCCC2`, the melting point is 100 to 104 °C.

As for `O=[N+]([O-])c1nccn1COCCO`, the melting point was determined as 115 °C.

In the case of `CCC(C(=O)c1ccc(O)cc1)c1ccccc1` (stereo unspecified), the melting point lay in the range of 127 to 129 °C.

Regarding `CCn1ncc(C(=O)c2ccc(S(C)(=O)=O)c(Cl)c2Cl)c1O`, the melting point is 198 to 200 °C.

Compound `CCOC(=O)c1c(C)nc(Cl)c([N+](=O)[O-])c1NC(C)CC` (stereo unspecified) yielded a melting point of 33 to 35 °C.

The compound `S=C1Nc2ccccc2Cn2nnnc21` showed a melting point of 275 to 277 °C.

The compound `Clc1cc2c(cc1Cn1c(Sc3ccccc3)nc(Br)c1Br)OCO2` displayed a melting point of 165 °C.

Consider `COc1cc2ncnc(N3CCc4ccc(Cl)cc43)c2cc1Cl`, for which the melting point was 226 °C.

As to `O=C1c2ccccc2-n2cnc(-c3nc(C4CC4)no3)c2[C@@H]2CCCN12`, the melting point was in the range of 211 to 212 °C.

Compound `O=C(O)c1ccc(Br)cc1COc1ccc2c(c1)OCO2` had a melting point of 167 to 177 °C.
